According to patent US20230293490A1, “PROFILIN1:ACTIN INHIBITOR AS AN ANTI-ANGIOGENIC COMPOUND” (University of Pittsburgh- Of the Commonwealth System of …, priority 2020, published 2023):

Assays:
human dermal VEC = experiment: Matrigel cord assay (in vitro angiogenesis); format: cell-based; conditions: for concentration able to inhibit angiogenesis: matrigel cord assay, human dermal VEC
Protocol: (§1) Note that contrasting its effect in cells, in biochemical assay Pfn1 inhibits actin polymerization by actin sequestering, and neither compound affects actin polymerization kinetics without the presence of Pfn1 (an important screening criterion).
(§2) Cell culture, transfection and viral transduction: Murine VHL-deleted variant of RENCA (referred to as RVN cells) cells were cultured in DMEM with 10% (v/v) FBS and 1% (v/v) antibiotics. Human VHL-negative 786-0 cells (source: ATCC) were cultured in RPMI-1640 media supplemented with 10% (v/v) FBS and antibiotics. HmVEC-1, a widely used immortalized human dermal microvascular EC line (ATCC; CRL-3243—referred to as VEC), were cultured in MCDB-131 (Life Technologies; Carlsbad, CA) growth medium supplemented with 10% (v/v) FBS, 1% (v/v) antibiotics, 10 ng/mL EGF, 1 μg/mL Hydrocortisone and 10 mM L-Glutamine. For adenovirus infection, cells were plated, allowed to attach and then infected with adenovirus encoding either GFP (Ad-GFP) or Pfn1 (Ad-Pfn1) at a MOI of 500 for 24 h, before further incubation for an additional 48h in fresh culture media prior to use. For knockdown studies, cells were transfected with 50 nM of either smart-pool control or Pfn1 siRNA for 72 h.

RVN cells [1] = experiment: Serum-induced chemotactic (transwell) migration of RVN cells; format: cell-based, murine; conditions: dose-dependent
Protocol: as §2, with “For knockdown studies, cells were transfected with 50 nM of either smart-pool control or Pfn1 siRNA for 72 h.” left out
(§3) Cell migration and proliferation assays: For single-cell migration experiments, RVN, VEC and 786-0 cells were plated in 24-well plates coated with type I collagen (Millipore) overnight. […] For cell proliferation assay, one thousand RCC cells were plated per well in 96-well plates using quadruplicate determinations, with proliferation assessed by time-course analyses of DAPI-stained nuclei based on images acquired over 3 to 5 random fields per well.

[2] = tested on: human retinal endothelial cells; experiment: Angiogenic capability of human retinal endothelial cells in vitro; format: cell-based
RENCA cells = experiment: Subcutaneous RENCA tumor model, daily intratumoral injection; format: in vivo, Balb/c mice
From the text: To determine whether C74 has any therapeutic benefit in vivo, we performed an exploratory study in which we established subcutaneous tumors by transplantation of RENCA cells in syngeneic Balb/c mice and injected either C74 or DMSO (vehicle) directly at the tumor cell inoculation site daily over a course of 19 days starting from day 1.
In vivo tumorigenesis: In 6 to 8 week old BALB/cJ mice, 1×10^6 RENCA cells were implanted subcutaneously in a 1:1 PBS:Matrigel (R&D Systems; Minneapolis, MN) mixture, supplemented with 81 μg C74 or DMSO control. Intratumoral injections were then given daily with either 320 μg C74 or control dissolved in saline, through day 19 post-implantation. On day 20, mice were sacrificed and harvested tumors were weighed. All animal experiments were performed according to the institutionally approved animal welfare guidelines.

Pfn1-actin interaction = experiment: Pyrene-actin polymerization assay; format: biochemical
From the text: as §1

[3] = tested on: human renal cancer cell line; experiment: Human renal cancer cell line migration; format: cell-based; conditions: dose dependent
RVN cells [4] = experiment: RVN cell proliferation assay; format: cell-based, murine; conditions: dose-dependent
Protocol: as §2, with “For knockdown studies, cells were transfected with 50 nM of either smart-pool control or Pfn1 siRNA for 72 h.” left out
as §3

[5] = tested on: human renal cancer cell line; experiment: Human renal cancer cell line proliferation; format: cell-based; conditions: dose dependent
choroidal explant = experiment: Choroidal explant angiogenesis culture (ex vivo)
choroidal NV = experiment: Laser-induced choroidal NV (CNV) model, IVT injection; format: in vivo, mice; conditions: IVT C74 (50 μM)
Protocol: FIGS. 8A-8D. […] Laser-induced choroidal NV (CNV—an in vivo model that induces sub-retinal NV in response to laser injury in mice and is widely used to study NV aspects of wet AMD) in the settings of IVT injection of either DMSO (VEH) or C74 (50 μM) (panel C) and associated quantification (panel D).

Row | SMILES | concentration able to inhibit angiogenesis (human dermal VEC) [µM] | fold lower concentration than C2 to inhibit angiogenesis (human dermal VEC; C74 vs C2) [fold] | range of concentrations reducing migration (RVN cells [1]) [µM] | angiogenic capability [2] | average end-point tumor burden (tumor weight) (RENCA cells; daily injection at tumor site over 19 days, tumors weighed day 20, n=10 animals) [mg] | tumor angiogenesis (CD31-positive immune-reactive region of tumor histosections) (RENCA cells; daily intratumoral administration, relative to DMSO) | reversal of Pfn1's inhibition of actin polymerization (Pfn1-actin interaction; actin plus Pfn1, fluorescence measures actin polymerization) | effect on actin polymerization without Pfn1 (Pfn1-actin interaction; compound alone, no Pfn1) | migration [3] | range of concentrations reducing proliferation (RVN cells [4]) [µM] | proliferation [5] | choroidal neovascularization ex vivo (choroidal explant) | choroidal neovascularization in vivo (choroidal NV)
1 | Oc1cccc(C2c3c(-c4ccccc4)nnc(O)c3Nc3nnnn32)c1 (centres unmarked) [C2, 8-(3-hydroxyphenyl)-10-phenyl-2,4,5,6,7,11,12-heptaazatricyclo[7.4.0.0^3,^7]trideca-1(13),3,5,9,11-pentaen-13-ol, reference compound] | 50 | – | – | – | – | – | – | – | – | – | – | – | –
2 | Cc1n[nH]c(O)c1C(c1ccc(Br)cc1)c1c(C)n[nH]c1O [C74, 4-[(4-bromophenyl)(5-hydroxy-3-methyl-1H-pyrazol-4-yl)methyl]-3-methyl-1H-pyrazol-5-ol] | 10 | ~5 | 10 to 25 | inhibited | 978.8 ± 366.0 | reduces tumor angiogenesis | can reverse Pfn1's inhibition of actin polymerization | does not significantly alter actin polymerization on its own | reduced | 10 to 25 | reduced | inhibited | inhibited
